Where a name gives a salt, the structure may show the parent alone. Active and inactive are the calls of the source. The rule behind the calls is not given here.
Assay: Cytotoxicity activity against human HepG2 cells assessed by CellTiter-Glo luminescent cell viability assay.
Assay type: toxicity, cell-based
Design: assay stage confirmatory assay, source tissue liver
Conditions: HepG2 cells, read-out: IC50 relative

Structure (SMILES) | CC50
Cc1cccc(C(=O)Nc2nc3ccccc3[nH]2)n1 | 4.4 µM (active)
CS(=O)(=O)N1CCc2ccc(NC(=O)Nc3ccc(Br)cc3)cc21 | 3.2 µM (inactive)
CC(C)c1ccc(CN2CCN(C(=O)CN(C)C(=O)c3ccco3)CC2)cc1 | 4.4 µM (active)
CCOC(=O)CCNc1cc(N2CCc3ccccc3CC2)nc(-c2ccccn2)n1 | 7.5 µM (active)
Cc1nc(-c2ccccn2)[nH]c(=O)c1CC(=O)N(C)[C@H]1CCc2ccccc21 | 6.3 µM (active)
C[C@H](O)CN1CCC(CNCc2cccc(C(F)(F)F)c2)CC1 | 15.5 µM (inactive)
O=C(Nc1cccnn1)N1CCC(=Cc2cccc(Oc3ccc(C(F)(F)F)cn3)c2)CC1 | 7.5 µM (active)
CN(C)c1cc(CNCc2cccc(OCc3ccccn3)c2)ccn1 | 15.3 µM (inactive)
NS(=O)(=O)c1ccc(S(=O)(=O)Nc2cccc3c(Cl)c[nH]c23)cc1 | 13.6 µM (inactive)
CC(C)NC[C@@H](C(=O)N1CCN(c2ncnc3c2[C@H](C)C[C@H]3O)CC1)c1ccc(Cl)cc1 [IPATASERTIB] | 13 µM (active)
CN(C)C1CCN(CCNC(=O)Nc2ccc(C3CC3)c(F)c2)CC1 | 4.5 µM (active)
COCCN1COc2c(cc(Cl)c3cccnc23)C1 | 7.5 µM (active)
Cc1cc(C)nc(-n2ncc(Cl)c(Cl)c2=O)n1 | 3.8 µM (active)
CC1(C)CC(Nc2ccc(Nc3ccccc3)cc2)CC(C)(C)N1 | 10.9 µM (active)
F[C@H](c1nc(-c2ccc(OCc3cccnc3)cc2)no1)C1CNC1 | 8.2 µM (active)
CN1CCN(Cc2ccc(Nc3ncc(Cl)c(Nc4ccccc4S(=O)(=O)N(C)C)n3)cc2)CC1 [DUBERMATINIB] | 11.2 µM (active)
O=S1(=O)C[C@H](NC2CCCC2)[C@@H](S(=O)(=O)c2cccs2)C1 | 16.1 µM (active)
CC(C)(Cc1ccc2ccccc2c1)NC[C@@H](O)COc1cccc(Cl)c1C#N | 1.3 µM (active)
N#Cc1ccc(CN2CCN(C(=O)c3ccc(-n4cccn4)cc3)CC2)cc1 | 8.6 µM (active)
CC(C)c1ccc(NC(=O)c2ccc(N3CCOCC3)nc2)cc1 | 10.5 µM (inactive)
COc1ccc(OC)c(N2C[C@@H](C(=O)Nc3ccc(Cl)cn3)CC2=O)c1 | 4.7 µM (active)
Cc1cccc2nc(C(=O)Nc3cccc4cccnc34)cn12 | 0.1 µM (active)
Cc1cc(NC(=O)c2cscn2)ccc1NC(=O)c1ccco1 | 9.1 µM (active)
CN(C)CCNc1oc(-c2ccc(S(=O)(=O)N3CCCCCC3)cc2)nc1C#N | 18 µM (inactive)

Structure (SMILES) | CC50
COc1ccc2c(c1)CN(C)CC2c1ccc(Cl)c(Cl)c1 (centres undefined) | 12.6 µM (active)
COc1ccc(CCN2CCC(Nc3nc4ccccc4n3Cc3ccc(F)cc3)CC2)cc1 [ASTEMIZOLE] | 1.5 µM (active)
COc1cc(N2CCC(O)CC2)ccc1Nc1cc(Nc2ccccc2S(=O)(=O)C(C)C)c2cc[nH]c2n1 | 12.9 µM (active)
Cc1ccc(NC(=O)c2ccc(Cl)s2)cc1S(=O)(=O)N1CCOCC1 | 4.7 µM (active)
Cc1ccc(NC(=O)c2ccc(CN3CCN(C)CC3)cc2)cc1Nc1nccc(-c2cccnc2)n1 [IMATINIB] | 7.3 µM (active)
CCC1(CC)CCN(c2ncnc3[nH]ccc23)CC1 | 8.3 µM (active)
COc1ccc(-c2nnc(Cn3ncc(Cl)c(Cl)c3=O)o2)cc1 | 0.9 µM (active)
CCCNC(=O)N1CC(Oc2ccc(-c3noc(C4CC4)n3)cc2)C1 | 6.1 µM (active)
O=C(CCN1CCCCC1)c1cc2ccccc2o1 | 21.1 µM (inactive)
COc1ccc(-c2noc(N3CCC(C(=O)NCCCN4CCC(C)CC4)CC3)n2)cc1 | 19.2 µM (inactive)
CC(=O)N1CCSc2ccc(S(=O)(=O)N3CCN(Cc4ccc5c(c4)OCO5)CC3)cc21 | 6.4 µM (active)
O=[N+]([O-])c1ccc(O)c2ncccc12 [NITROXOLINE] | 12.4 µM (active)
O=C(Nc1ccc(Cl)cc1)Nc1ccc(Cl)c(Cl)c1 [TRICLOCARBAN] | 42.9 µM (inactive)
COc1ccc(CNC(=O)C2CCN(S(=O)(=O)c3ccc4c(c3)CC(C)N4C(C)=O)CC2)cc1 (centres undefined) | 29.7 µM (inactive)
CCOc1ccc(S(=O)(=O)Nc2ccc3c(c2)N(C(C)=O)CCC3)cc1 | 6.4 µM (active)
O=C(c1cccs1)c1no[n+]([O-])c1C(=O)c1cccs1 | 1.8 µM (active)
O=C(Nc1ccnn1-c1ccc(Br)cn1)c1ccccn1 | 23.7 µM (inactive)
CN(C)CCCn1cc(C2=C(c3c[nH]c4ccccc34)C(=O)NC2=O)c2ccccc21 [GF-109203] | 4.8 µM (active)
N#Cc1ccc(NC(=O)c2cccc3ncccc23)cc1 | 10.8 µM (inactive)
CC(C)c1cc(C(=O)NCc2ccc(N3CCO[C@@H](C)C3)nc2)n[nH]1 | 4.8 µM (active)
CN(C)Cc1ccc(-c2nc3cccc4c3n2CCNC4=O)cc1 | 10.9 µM (active)
CCc1nc(N)nc(N)c1-c1ccc(Cl)cc1 [PYRIMETHAMINE] | 6 µM (active)
COc1ccc(C(=O)N2CCN(c3ncnc4cccc(F)c34)CC2)cc1 | 9.4 µM (active)
O=C1c2sc3nccc(=O)n3c2C(=O)N1Cc1ccccc1 | 10.8 µM (active)

Structure (SMILES) | CC50
c1ccc(Oc2cccc(C[C@H]3CCCN3)c2)cc1 | 13.7 µM (inactive)
Cn1nccc1CCNC(=O)c1csc(-c2ccoc2)n1 | 2 µM (active)
Cc1[nH]c2c(C)ccc(F)c2c1CCN | 11.7 µM (active)
O=C(CCCCCn1sc2ccccc2c1=O)Nc1ccc2c(c1)OCO2 | 3.5 µM (active)
CC(=O)Nc1cccc(-n2c(=O)n(C3CC3)c(=O)c3c(Nc4ccc(I)cc4F)n(C)c(=O)c(C)c32)c1 [TRAMETINIB] | < 0.1 µM (active)
Cc1cc(C)cc(C(=O)NOCCCCCC(=O)NO)c1 | 0.5 µM (active)
CNC(=O)[C@@H](c1ccccc1)N1CCc2cc(OC)c(OC)cc2[C@@H]1CCc1ccc(C(F)(F)F)cc1 [ALMOREXANT] | 20.4 µM (inactive)
O=S(=O)(Nc1cccc2cccnc12)c1ccccc1F | 2.6 µM (active)
CCC1=NNc2cccc3c(OC)ccc1c23 | 8.8 µM (active)
CCc1ccc(-c2cc3c(=O)n(CC(=O)NCCCN4CCN(CC)CC4)nc(C)n3n2)cc1 | 25.5 µM (inactive)
COc1ccc(CCN2C(=O)N(C)C(=O)C23CCN(Cc2cccc(OC)c2)CC3)cc1 | 6.6 µM (active)
CCOc1cc2ccccc2cc1C(=O)NCc1ccco1 | 1.7 µM (active)
CC1(C)CC[C@H](CO)N(CCS(=O)(=O)c2ccc(C#N)cc2)C1 | 11.7 µM (active)
Cc1nc(Nc2n[nH]c3c2CN(C(=O)N[C@H](CN(C)C)c2ccccc2)C3(C)C)c2sccc2n1 [PF-03758309] | 0.4 µM (active)
COc1c(C)cnc(Cn2cnc3c(Cl)nc(N)nc32)c1C [BIIB021] | 0.4 µM (active)
CC(C)Oc1ccc(-c2c[nH]cc2CN(C)CCN)cc1 | 23.3 µM (inactive)
CCOC(=O)CNS(=O)(=O)c1cc(-c2nnc(Nc3cccc(O)c3)c3ccccc23)ccc1C | 4.1 µM (active)
Cc1nnsc1C(=O)Nc1ccc(-n2nc(C(F)(F)F)cc2C(F)(F)F)cc1 | 9.9 µM (active)
Cc1ccc(S(=O)(=O)NCCCNC(=O)c2c3c(nn2C)CCCC3)cc1 | 4.6 µM (active)
Cc1cc2c(N3CC[C@@]4(C3)NC(=O)N(C)C4=O)ccnc2cc1Cl | 8.6 µM (active)
CN(CCN1CCC(OC(=O)Nc2ccccc2-c2ccccc2)CC1)C(=O)c1ccc(CN2CCC(C(N)=O)CC2)cc1 [REVEFENACIN] | 13.2 µM (active)
N#Cc1ccc(O[C@@H]2c3ccccc3C[C@H]2N2CCC[C@@H](N)C2)c(Cl)c1 | 4.9 µM (active)
CC(C)Cn1c(=O)c2sccc2n2c(=O)n(CC(=O)Nc3ccc(F)cc3)nc12 | 50 µM (inactive)
O=S(=O)(c1c[nH]cn1)N1CCNC[C@H]1c1cccc(Cl)c1 | 50 µM (inactive)

Structure (SMILES) | CC50
Cc1c(NC(=O)OC[C@@H]2COCCN2)cn2ncnc(Nc3ccc4c(cnn4Cc4cccc(F)c4)c3)c12 | 9 µM (active)
CCCC(=O)Nc1ccc(Nc2nc(C)cc(N3CCCC3)n2)cc1 | 5.7 µM (active)
CCCN1C(=O)COc2cc(-c3noc(C(=O)NC4CCN(Cc5ccccc5)CC4)n3)ccc21 | 15.2 µM (inactive)
O=C1Nc2cc(Cl)ccc2Oc2ccc(S(=O)(=O)N3CCCC3)cc21 | 6.4 µM (active)
C[C@@H]1Oc2ccccc2N(CC(=O)Nc2nc(-c3ccccn3)cs2)C1=O | 3.3 µM (active)
COc1ccc(OCCN2CCN(C(=O)c3ccc(OCc4cn5ccccc5n4)cc3)CC2)cc1 | 4.3 µM (active)
CC[C@H]1CN2CCc3cc(OC)c(OC)cc3[C@@H]2C[C@@H]1C[C@H]1NCCc2cc(OC)c(OC)cc21 [EMETINE HYDROCHLORIDE] | 0.2 µM (active)
Cc1cc2sc(NC(=O)NCCNS(C)(=O)=O)nc2cc1F | 2.3 µM (active)
Cn1ccc(C(=O)Nc2cc(F)ccc2-n2cccn2)cc1=O | 1.1 µM (inactive)
CCCCCCCCC(=O)N[C@H](CN1CCCC1)[C@H](O)c1ccc2c(c1)OCCO2 | 5.1 µM (active)
O=C1c2ccccc2-c2n[nH]c3cccc1c23 | 6.2 µM (active)
CCCS(=O)(=O)N1CCc2ccc(NC(=O)Nc3ccc(OCC)cc3)cc21 | 50 µM (inactive)
CSc1ccc2c(c1)N(CCC1CCCCN1C)c1ccccc1S2 (centres undefined) [THIORIDAZINE] | 3.8 µM (active)
Cc1cc(NC(=O)N2CC=C(c3c[nH]c4ncccc34)CC2)no1 | 9.2 µM (inactive)
NC1CCN(S(=O)(=O)c2ccc([C@H]3[C@@H]4CCCC[C@@H]43)cc2)CC1 | 12 µM (active)
CN(C)CCNCc1cccc(OCc2ccc(F)cc2)c1 | 15 µM (inactive)
O=C(Nc1cnn(-c2ccccn2)c1)c1ccc(O)c(Cl)c1 | 50 µM (inactive)
COc1ccc(CN2CCN(c3ncnc4sccc34)CC2)cc1OC | 1.4 µM (active)
N#Cc1nccnc1Sc1nnc(COc2ccc(Cl)cc2)o1 | 2.9 µM (active)
CCn1c(-c2cccc(S(=O)(=O)N3CCOCC3)c2)cs/c1=N/c1ccccc1 | 5 µM (active)
COc1c(Nc2ncc(Cl)c(N[C@H]3[C@@H](C(N)=O)[C@@H]4C=C[C@H]3C4)n2)ccc2c1CC[C@@H](N1CCOCC1)CC2 | 2 µM (active)
CCOc1cc(C(=O)N[C@H]2CCN(C3CCN(C)CC3)C2)ccc1C | 15.9 µM (inactive)

From ChEMBL document CHEMBL5303711, “ECBD screening data for assay EOS300108” (2023)
